The text below walks through data of patent US20100035793A1, “Modulators” (priority 2005, published 2010).

The test system of one data set is A549 tumor. The conditions noted are these: nude mice; cited from earlier work.
The target of the next data set is JAK2 (Homo sapiens, UniProt O60674). The conditions noted are these: cited from earlier work.
Another data set concerns collagen. In words: Western blot of collagen production in KF48 keloid fibroblasts. Type of data set: cell-based, human. The settings on record: KF48, Cucurbitacin I 30 min then 48 h in growth media, FIG. 5B. The protocol: These vectors containing Stat3 siRNA targets and empty vector were transfected into 293T-based Phoenix-Ampho packaging cell line for 7-9 h, and the amphotropic retroviruses were harvested 48 h later, pelleted to remove nonadherent cells and cellular debris, and filtered through a […] cellulose acetate membrane. The keloid fibroblasts were infected overnight in the presence of 4 μg/ml polybrene, and replaced with fresh 10% FBS/DMEM the following day. Cells were assayed for Western blot 48 h after infection, or for XTT cell proliferation, or for migration assay which was performed by replating the cells into 8 μM Transwell membrane and fixed 24 h later as described above.
(§1) Inhibition of Stat3 was also evaluated by incubating KF48 for 30 min with various doses of Cucurbitacin I, an inhibitor of Jak2/Stat3 activation (32), or with DMSO alone as a control, followed by further incubation in normal growth media for 48 h. […] Cucurbitacin I was acquired from Galchimia (A Corufia, Spain).
Western blot. Cells were either harvested in radioimmune precipitation assay (RIPA) buffer (150 mM NaCl, 50 mM Tris-HCl, pH 7.2, 1% deoxycholic acid, 1% Triton X-100, 0.25 mM EDTA, pH 8.0) containing protease inhibitor cocktail (Roche Diagnostics Corporation, Indianapolis, Ind., USA), or lysis buffer containing 150 mM NaCl, 10 mM Tris-HCl, pH 7.4, 0.5% Triton-X-100, 0.5% NP-40, 1 mM EDTA, 0.2 mM sodium vanadate, supplemented with protease inhibitor tablet. Total cell lysates were collected after centrifugation for 10 min at 4° C., and resolved in 7.5% or 10% polyacrylamide gel electrophoresis, and transferred to PVDF membranes (Bio-Rad Laboratories, Hercules, Calif., USA). The membranes were blotted with anti-phosphoTyr705 Stat3 antibody (1:1000 dilution; Cell Signaling, Beverly, Mass., USA) overnight at 4° C. overnight in PBS containing 1% BSA and 0.1% Tween 20, washed with PBS containing 0.2% Tween 20, and incubated with secondary anti-rabbit IgG antibody (1:2000 dilution; Sigma, Saint Louis, Mo., USA) for 1 h at room temperature, washed with PBS containing 0.2% Tween 20, followed by enhanced chemiluminescence (Amersham Biosciences, Buckinghamshire, UK) or Lumi-Light (Roche Diagnostics Corporation, Indianapolis, USA), and autoradiography. […]
Methods of assessing polypeptides regulated by STAT Collagen may be regulated by STAT 3 activation. monoclonal anti-human collagen I, II, III Was purchased from MONOSAN (Uden, Netherlands). […] These were detected via western blot as described above.
A general note: Immunoblotting shows a protein as a band on a membrane.

The target of data set [1] is T1, Stat3 (Homo sapiens, UniProt P40763). The settings on record: cited from earlier work.
Target sequence in this assay (P40763 whole entry, species assumed): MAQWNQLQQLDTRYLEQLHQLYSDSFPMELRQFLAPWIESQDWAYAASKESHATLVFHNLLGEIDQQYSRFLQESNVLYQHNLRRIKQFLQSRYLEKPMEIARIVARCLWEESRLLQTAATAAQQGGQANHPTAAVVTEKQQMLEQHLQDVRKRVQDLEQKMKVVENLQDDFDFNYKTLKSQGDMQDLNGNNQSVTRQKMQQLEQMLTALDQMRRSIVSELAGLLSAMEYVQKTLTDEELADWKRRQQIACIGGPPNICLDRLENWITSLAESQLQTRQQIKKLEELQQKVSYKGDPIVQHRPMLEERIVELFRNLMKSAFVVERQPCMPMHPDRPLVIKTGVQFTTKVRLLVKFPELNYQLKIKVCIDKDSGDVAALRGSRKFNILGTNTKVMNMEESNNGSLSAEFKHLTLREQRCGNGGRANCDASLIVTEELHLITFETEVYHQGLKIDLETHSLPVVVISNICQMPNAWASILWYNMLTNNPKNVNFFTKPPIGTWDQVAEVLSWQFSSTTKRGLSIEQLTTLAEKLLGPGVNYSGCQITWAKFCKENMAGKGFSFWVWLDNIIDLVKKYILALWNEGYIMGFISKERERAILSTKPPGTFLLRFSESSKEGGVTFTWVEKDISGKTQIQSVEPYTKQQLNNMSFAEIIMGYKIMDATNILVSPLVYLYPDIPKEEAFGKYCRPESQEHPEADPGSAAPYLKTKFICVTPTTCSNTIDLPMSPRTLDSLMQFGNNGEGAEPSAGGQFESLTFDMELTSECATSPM
The test system of data set [2] is KF48 keloid fibroblasts. The experiment in a line: Scratch-wound migration assay. The format is cell-based, human. The protocol: Cell migration in keloidflbroblasts is inhibited by Stat3 siRNA and Cucurbitacin I. To examine the role of Stat3 in cell migration of skin fibroblasts, KF48 cells were infected with retrovirus expressing Stat3 siRNAs and scratch assays were performed as previously described. […] Three non-overlapping fields were acquired, and graphically illustrated as mean±SD in FIG. 8B. Transmembrane cell migration assays were also performed in triplicates as described earlier, and quantified as mean±SD (FIG. 8C). […] The right panels in FIG. 8B and 8C depict immunoblots of Stat3 and actin to show the efficiencies of inhibition by the Stat3 siRNAs.
The role of Stat3 in cell migration was also examined using Cucurbitacin I in the scratch assay. KF48 cells were first incubated with 10 μg/ml mitomycin C for 2 h, before treating for 30 min with DMSO or 1 μM Cucurbitacin I. The scratch-wound was performed, followed by further incubation in normal growth media. Pictures were taken at 0 h, 22 h and 48 h after wounding.
Migration assay. For migration assay using the scratch method, cells were grown to confluence and incubated with 10 μg/ml mitomycin C for 2 h, before a scratch wound was introduced using a yellow pipette tip. Cells were further incubated in normal growth media and pictures were taken at 0 h, 14 h, 15 h, 22 h, or 48 h after wounding. Three non-overlapping fields were captured by Axiovert 135 microscope from Zeiss and cells migrated into the wound site were counted and presented as mean±SD.

For data set [3], the system named is KF48 keloid fibroblasts. In words: XTT proliferation assay. Type of data set: cell-based, human. An excerpt:
Inhibition of Stat3 decreases cell proliferation. Enhanced fibroblast proliferation is a characteristic of keloid tissue. In agreement with this, keloid fibroblasts grown in normal culture conditions proliferated faster than normal fibroblasts, as observed in KF48 and KF107 compared to NF2 and NF4 (FIG. 6A). To investigate whether Stat3 is involved in the enhanced keloid fibroblast proliferation, KF48 was infected with retrovirus expressing Stat3 siRNAs, and cell proliferation was examined. […] XTT proliferation assay. Cells seeded at 3,000 cells/well in 96-well plates and grown in normal growth conditions, or infected with retroviral Stat3 siRNAs, were assayed for proliferation using the XrT proliferation kit (Roche) according to the manufacturer's instructions. The readings were taken at 450 nm and referenced against 690 nm, 2 h after the addition of the XrT reagent. Each sample was performed at quadruplicates in two to three independent experiments. Data are presented as mean±SD
Cell proliferation was also investigated by treating KF48 cells with various doses of Cucurbitacin I or with DMSO control, before incubating in normal growth media and examined daily over 4 days. Cucurbitacin I concentration as low as I μM was able to inhibit cell proliferation of KF48 compared to DMSO and untreated control (0 μM), whereas Cucurbitacin I exposure at 5 μM and above seemed to cause cell death (FIG. 6C).
For orientation: Formazan colour is commonly taken as a measure of viable cells.

The subject of data set [4] is A549 human lung carcinoma cells. Set-up: dose or concentration left out as unconfirmed. The settings on record: Cucurbitacin I for 24 h; cited from earlier work.
Data set [5] addresses T1, Stat3. In words: Western blot of Stat3 phosphorylation and expression in KF48 treated with Cucurbitacin I. The format is cell-based. Set-up: primary fibroblasts derived from normal skin and keloid tissues were further examined; endogenous in cells; host or cells: KF48 primary keloid fibroblasts. The procedure:
as §1
Target sequence in this assay (P40763 whole entry): as the sequence (P40763 whole entry, species assumed) above
Western blot. Cells were either harvested in radioimmune precipitation assay (RIPA) buffer (150 mM NaCl, 50 mM Tris-HCl, pH 7.2, 1% deoxycholic acid, 1% Triton X-100, 0.25 mM EDTA, pH 8.0) containing protease inhibitor cocktail (Roche Diagnostics Corporation, Indianapolis, Ind., USA), or lysis buffer containing 150 mM NaCl, 10 mM Tris-HCl, pH 7.4, 0.5% Triton-X-100, 0.5% NP-40, 1 mM EDTA, 0.2 mM sodium vanadate, supplemented with protease inhibitor tablet. Total cell lysates were collected after centrifugation for 10 min at 4° C., and resolved in 7.5% or 10% polyacrylamide gel electrophoresis, and transferred to PVDF membranes (Bio-Rad Laboratories, Hercules, Calif., USA). The membranes were blotted with anti-phosphoTyr705 Stat3 antibody (1:1000 dilution; Cell Signaling, Beverly, Mass., USA) overnight at 4° C. overnight in PBS containing 1% BSA and 0.1% Tween 20, washed with PBS containing 0.2% Tween 20, and incubated with secondary anti-rabbit IgG antibody (1:2000 dilution; Sigma, Saint Louis, Mo., USA) for 1 h at room temperature, washed with PBS containing 0.2% Tween 20, followed by enhanced chemiluminescence (Amersham Biosciences, Buckinghamshire, UK) or Lumi-Light (Roche Diagnostics Corporation, Indianapolis, USA), and autoradiography. The membranes were stripped with Restore Western Blotting Stripping Buffer (Pierce, Rockford, Ill., USA) according to manufacturer's instructions and reblotted with anti-phosphoSer727 Stat3 (1:1000 dilution; Cell Signaling, Beverly, Mass., USA) and secondary anti-mouse IgG antibody (1:2000 dilution; Sigma, Saint Louis, Mo., USA). The stripping and reblotting procedure was repeated with monoclonal anti-Stat3 (1:1000 dilution; BD Transduction Laboratories), polyclonal anti-actin (1:1000 dilution; Sigma) and monoclonal anti-collagen antibody (1:1000 dilution; MONOSAN).

The target in data set [6] is T1, Stat3. The settings on record: cited from earlier work. This is another data set of the same source.
Target sequence in this assay (P40763 whole entry, species assumed): as above
The subject of the next data set is STAT 5. The conditions noted are these: peptide present in nuclear extracts; cited from earlier work.
Setting [7] is: KF48, 30 min treatment then 48 h in growth media, FIG. 5B.

Non-standard residues stand in square brackets, D forms with d. No end group written: not given here. pY = N[C@@H](Cc1ccc(OP(=O)(O)O)cc1)C(=O)O

Sequence of JAK2 (O60674 whole entry, species assumed): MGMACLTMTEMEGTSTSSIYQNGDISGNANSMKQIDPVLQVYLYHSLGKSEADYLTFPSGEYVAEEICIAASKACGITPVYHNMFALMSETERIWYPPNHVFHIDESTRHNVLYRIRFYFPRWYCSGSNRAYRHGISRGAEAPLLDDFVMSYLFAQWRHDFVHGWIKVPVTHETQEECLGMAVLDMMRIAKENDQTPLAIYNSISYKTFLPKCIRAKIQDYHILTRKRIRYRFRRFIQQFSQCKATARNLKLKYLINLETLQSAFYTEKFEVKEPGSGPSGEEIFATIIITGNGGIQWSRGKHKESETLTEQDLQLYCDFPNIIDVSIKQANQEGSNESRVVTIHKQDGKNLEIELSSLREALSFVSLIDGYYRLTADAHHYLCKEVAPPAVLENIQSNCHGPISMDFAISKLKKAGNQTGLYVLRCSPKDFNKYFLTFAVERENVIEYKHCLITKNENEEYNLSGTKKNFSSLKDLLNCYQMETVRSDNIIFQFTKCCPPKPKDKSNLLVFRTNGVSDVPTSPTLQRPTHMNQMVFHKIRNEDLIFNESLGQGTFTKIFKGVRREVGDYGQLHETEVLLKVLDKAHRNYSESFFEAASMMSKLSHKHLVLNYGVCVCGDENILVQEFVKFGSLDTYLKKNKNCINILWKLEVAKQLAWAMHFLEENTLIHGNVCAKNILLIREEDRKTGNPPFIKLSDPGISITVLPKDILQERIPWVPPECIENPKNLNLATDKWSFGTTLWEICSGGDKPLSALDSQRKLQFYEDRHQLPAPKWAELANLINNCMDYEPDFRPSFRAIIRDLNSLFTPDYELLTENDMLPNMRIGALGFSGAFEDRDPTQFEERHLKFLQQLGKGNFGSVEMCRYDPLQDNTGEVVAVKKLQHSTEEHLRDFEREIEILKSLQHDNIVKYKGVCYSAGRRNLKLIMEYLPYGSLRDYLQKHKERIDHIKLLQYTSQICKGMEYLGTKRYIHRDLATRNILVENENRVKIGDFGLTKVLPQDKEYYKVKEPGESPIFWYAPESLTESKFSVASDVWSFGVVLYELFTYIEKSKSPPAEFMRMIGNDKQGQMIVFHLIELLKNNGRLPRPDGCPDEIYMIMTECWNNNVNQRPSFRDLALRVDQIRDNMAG

As to `CC(C)(O)/C=C/C(=O)[C@](C)(O)[C@H]1[C@H](O)C[C@@]2(C)[C@@H]3CC=C4[C@@H](C=C(O)C(=O)C4(C)C)[C@]3(C)C(=O)C[C@]12C` [Cucurbitacin I], the “inhibition of A549 tumor growth” value in the data set on A549 tumor was 55.4%. Further, on JAK2, the “inhibition of activation of JAK2” value is given as “inhibit” and the “potency on pJak2 relative to pSTAT 3” value is listed as “more potent inhibitor of pJak2 than pSTAT 3”. Also, the “inhibition of collagen production” value in the data set with collagen is on record as “dose-dependent inhibition”. The “inhibition of activation of STAT 3” value at Stat3 [1] was “inhibit”. In addition, the “cell migration at 22 h” value in the data set on KF48 keloid fibroblasts [2] (1 μM for 30 min, 22 h after wounding, vs DMSO, P<0.001) is “significant reduction in cell migration”. Also, the “cell migration at 48 h” value in the data set on KF48 keloid fibroblasts [2] (1 μM for 30 min, 48 h after wounding, vs DMSO) was “delayed migration”. In addition, in the data set on KF48 keloid fibroblasts [2] (1 μM for 30 min, compared to DMSO control, FIG. 8D), the “migration of KF48, scratch assay” value is “decelerated the migration”. The “concentration as low as, effective in decreasing rate of migration to that of normal fibroblasts” value in the data set on KF48 keloid fibroblasts [2] (keloid fibroblasts) was 1 µM. In the data set on KF48 keloid fibroblasts [3] (KF48, FIG. 6C), the “exposure that seemed to cause cell death” value was no less than 5 µM. The “concentration as low as, able to inhibit cell proliferation” value in the data set on KF48 keloid fibroblasts [3] (KF48, examined daily over 4 days, vs DMSO and untreated) came out at 1 µM. In addition, the “observations at higher doses” value with KF48 keloid fibroblasts [3] (higher doses, FIGS. 6C and 8D) is “cell morphology changes and the beginning of some cell death”. Also, in data set [4], the apoptosis is recorded as 9.8% and the tumor cell death was 33%. Also, at Stat3 [5] (KF48, 30 min treatment then 48 h), the “effective concentration as low as (inhibition of pY705 Stat3, pS727 Stat3 and collagen production)” value is 1 μM. For the same compound, at Stat3 [5] (KF48, 30 min treatment then 48 h, FIG. 5B), the Stat3 expression result is “dose-dependent decrease”. Also, on Stat3 [5] (setting [7]), the “inhibition of pS727 Stat3” value is reported as “dose-dependent inhibition” and the “inhibition of pY705 Stat3” value is given as “dose-dependent inhibition”.

As for “PY*LKTK: Stat3 SH2 domain-binding phosphopeptide, Y* represents phosphotyrosine (P[pY]LKTK; UniProt P40763 704-709, looked up, fragment)”, in the data set with Stat3 [6], the “STAT 3 biochemical activity and biological function” value is “inhibit”. Besides, in the data set with Stat3 [6] (peptide present in nuclear extracts), the “levels of DNA binding activities of STAT 3” value was “significant reduction”. Besides, in the data set with STAT 5, the “levels of DNA binding activities of STAT 5” value was “no effect”.
